The values below come from patent US8349850B2, “Heterocyclic compounds and uses thereof in the treatment of sexual disorders” (ATIR Holding S.A., priority 2006, dated 2013).

Broadly, the inhibition is the percentage by which the read-out fell short of the control. A word on the IC50: it is the midpoint of a concentration-inhibition curve.

Molecules are shown by their SMILES.

For assay [1], the target named is T1, D4.4 receptor (Homo sapiens, UniProt P21917).
T1 construct: expressed in transfected cells; host or cells: CHO cells
T1 sequence (P21917 1-419): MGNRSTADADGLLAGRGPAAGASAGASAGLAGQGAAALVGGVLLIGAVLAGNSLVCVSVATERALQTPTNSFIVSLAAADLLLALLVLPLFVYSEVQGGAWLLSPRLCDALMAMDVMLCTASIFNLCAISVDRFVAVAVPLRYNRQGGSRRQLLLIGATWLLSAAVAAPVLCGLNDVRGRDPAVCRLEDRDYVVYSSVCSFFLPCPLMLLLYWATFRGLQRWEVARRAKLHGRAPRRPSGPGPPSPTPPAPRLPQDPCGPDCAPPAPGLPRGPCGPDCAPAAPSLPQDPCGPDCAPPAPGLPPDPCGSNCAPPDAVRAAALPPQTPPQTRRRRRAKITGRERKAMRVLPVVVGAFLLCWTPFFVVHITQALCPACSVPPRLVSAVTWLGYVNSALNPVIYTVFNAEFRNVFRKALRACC
Kind of assay: Competitive binding to D4.4 dopamine receptor ([3H]-YM-09151-2 radioligand). Conditions: 5 mcM compound; human recombinant D4.4 in CHO cells; na = no activity. On the procedure:
(§1) Compounds were assayed for competitive binding to D2 SHORT and D4.4 type dopamine receptors. Both receptor types are expressed as human recombinant proteins in CHO cells, as described, for example, in Jarvis et al. (1973); Van Tol et al. (1991) and Van Tol et al. (1992).
(§2) Determination of binding to D4.4 receptor was performed using [^3H]-YM-09151-2 (70-87 Ci/mmol, 0.3 nM), as a radioligand, in with the presence of various concentrations of the tested compound. Reactions were carried out in 50 mM TRIS-HCl (pH 7.4) containing 5 mM MgCl2, 5 mM EDTA, 5 mM KCl and 1.5 mM CaCl2, for 60 minutes at 22° C. The reaction was terminated by rapid vacuum filtration onto glass fiber filters. Radioactivity trapped onto the filters was determined (counted) and compared to control values in order to accurately evaluate any interaction of the tested compound(s) with the cloned dopamine D4.4 binding site.

The target of assay [2] is T2, Human recombinant dopamine D4.4 receptors expressed in CHO-K1 cells (Homo sapiens, UniProt P21917).
T2 construct: expressed in transfected cells; host or cells: CHO-K1 cells (membranes)
T2 sequence (P21917 1-419): T1 sequence (P21917 1-419)
Description: GTPgammaS Cellular Assay (agonist response). The assay is classed as biochemical. Conditions: relative to the 1 μM dopamine response; tested at 5, 1, 0.1, 0.01 μM (concentration of tabulated value not given); na = no activity; read-out: D4.4(h) GTPgammaS^35 Cellular Assay, Agonist Response, %. On the procedure: Human recombinant dopamine D4.4 receptors expressed in CHO-K1 cells were used. The tested compound was pre-incubated with 0.1 mg/ml membranes and 10 μM GDP for 20 minutes at 25° C. in modified HEPES buffer (pH 7.4). SPA beads were then added and the mixture was maintained for additional 60 minutes at 30° C. The reaction was initiated by the addition of 0.3 nM [^35S]GTPγS, and the obtained reaction mixture were incubated for 30 minutes. Test compound-induced increase of [^35S]GTPγS binding by 50 percent or more (≧50%) relative to the 1 μM dopamine response indicated dopamine D4.4 agonist activity. Test compound-induced inhibition of 1 μM dopamine-induced increase of [^35S]GTPγS binding response by 50 percent or more (≧50%) indicated receptor antagonist activity. Compounds were tested at concentrations of 5, 1, 0.1, 0.01 μM.

The test system of assay [3] is D2 SHORT and D4.4 type dopamine receptors. Description: D4/D2 binding ratio from competitive binding to D4.4 and D2 short receptors. More on the design: species or system human. Particulars: ratio of concentrations required to inhibit 50% of radioligand binding for each receptor. On the procedure:
as §1
Determination of binding to D2 short receptor was performed using [^3H]-spiperone, a D2 receptor ligand (Gundlach et al., 1984), as a radioligand (20-60 Ci/mmol, 0.2 nM) in the presence of various concentrations of the tested compound. Reactions were carried out in 50 mM TRIS-HCl (pH 7.4) containing 120 mM NaCl, 5 mM KCl, 5 mM MgCl2 and 1 mM EDTA, for 60 minutes at 25° C. The reaction was terminated by rapid vacuum filtration onto glass fiber filters. Radioactivity trapped onto the filters was determined (counted) and compared to control values in order to accurately evaluate any interaction of the test compound(s) with the cloned dopamine D2 short binding site.
as §2
D4/D2 binding ratios were determined based on the ratio of the concentration of each tested compound required to inhibit 50% of the radioligand binding for each receptor.

In assay [4] the target is T3, PDE5 partially purified from human platelets (Homo sapiens, UniProt O76074).
T3 construct: PDE5 partially purified from human platelets was used; from tissue; host or cells: human platelets
Description: Phosphodiesterase Type 5 (PDE5) Inhibition. The assay is classed as biochemical. Conditions: for IC50 / PDE5 IC50, 10^−6 M: 'active' = observed activity not quantitated; for IC50: read-out: PDE5 IC50, 10^−6 M; for exhibit both PDE5 inhibition and D4 agonist activity (dual activity): referring to Table 2 (PDE5 and D4 assays). On the procedure:
Phosphodiesterase type 5 (PDE5) catalyzes the conversion of cAMP or cGMP to their respective monophosphate forms. PDE5 has a high Km for cAMP and a low Km for cGMP, is insensitive to Ca^2+/calmodulin or cGMP regulation, and is relatively sensitive to inhibitors such as dipyridamol and zaprinast.
PDE5 partially purified from human platelets was used. The tested compound (at a concentration of 0.1, 1, 20 or 50 μM) and/or vehicle was incubated with 3.5 μg enzyme and 1 μM cGMP containing 0.01 μM [^3H]cGMP in Tris buffer pH 7.5 for 20 minutes at 30° C. Since enzyme activity may change from lot to lot, the concentration used was adjusted if required.
The reaction was terminated by boiling the reaction mixture for 2 minutes. The obtained GMP was then converted to guanosine by addition of 10 mg/ml snake venom nucleotidase and further incubation at 30° C. for 10 minutes. Unhydrolyzed cGMP was bound to AG1-X2 resin, and remaining [^3H]Guanosine in the aqueous phase was quantitated by scintillation counting.

With `O=c1[nH]c(CN2CCN(c3ccccc3F)CC2)nc2ccccc12` [Compound 104, 2-{[4-(2-fluorophenyl)piperazin-1-yl]methyl}quinazolin-4(3H)-one], the inhibition at 5 µM in assay [1] amounted to 59%. Moreover, the Emax in assay [2] was found to be 62%. Also, in assay [3], the “D4/D2 Selectivity” value was above 100.

Turning to `COc1ccccc1N1CCN(Cc2nc3ccccc3c(=O)[nH]2)CC1` [Compound 107, 2-{[4-(2-methoxyphenyl)piperazin-1-yl]methyl}quinazolin-4(3H)-one], the inhibition at 5 µM in assay [1] was found to be 88%. Besides, the Emax in assay [2] is 44%. Besides, the “D4/D2 Selectivity” value in assay [3] is above 70.

In the case of `CCOc1ccccc1N1CCN(Cc2nc3ccccc3c(=O)[nH]2)CC1` [Compound 108, 2-{[4-(2-ethoxyphenyl)piperazin-1-yl]methyl}quinazolin-4(3H)-one], the inhibition at 5 µM in assay [1] amounted to 93%. Moreover, the Emax in assay [2] was 49%. The “D4/D2 Selectivity” value in assay [3] is given as above 100.

On to `O=c1[nH]c(CN2CCN(c3ccccc3Cl)CC2)nc2ccccc12` [Compound 109, 2-{[4-(2-chlorophenyl)piperazin-1-yl]methyl}quinazolin-4(3H)-one], for which the inhibition at 5 µM in assay [1] came to 57%. The Emax in assay [2] was 54%. Also, the “D4/D2 Selectivity” value in assay [3] is recorded as above 100.

`N#Cc1ccccc1N1CCN(Cc2nc3ccccc3c(=O)[nH]2)CC1` [Compound 110, 2-{4-[(4-oxo-3,4-dihydroquinazolin-2-yl)methyl]piperazin-1-yl}benzonitrile]: the inhibition at 5 µM in assay [1] came out at 52%. In assay [2], the Emax was 69%. Also, the “D4/D2 Selectivity” value in assay [3] was above 500.

For `O=c1[nH]c(CN2CCN(c3cccc(O)c3)CC2)nc2ccccc12` [Compound 113, 2-{[4-(3-hydroxyphenyl)piperazin-1-yl]methyl}quinazolin-4(3H)-one], in assay [1], the inhibition at 5 µM amounted to 91%. Also, the Emax in assay [2] is 42%. Moreover, in assay [3], the “D4/D2 Selectivity” value is around 50. Moreover, in assay [4], the IC50 stood at 20 µM; the “exhibit both PDE5 inhibition and D4 agonist activity (dual activity)” value is “both PDE5 inhibition and D4 agonist activity”.

`O=c1[nH]c(CN2CC=C(c3ccccc3)CC2)nc2ccccc12` [Compound 124, 2-[(4-phenyl-3,6-dihydropyridin-1(2H)-yl)methyl]quinazolin-4(3H)-one]: the inhibition at 5 µM in assay [1] is 73%. The Emax in assay [2] was 57%. Also, the “D4/D2 Selectivity” value in assay [3] was around 85.

Consider `O=c1cc(CN2CC=C(c3ccccc3)CC2)oc2ccccc12` [Compound 201, 2-[(4-phenyl-3,6-dihydropyridin-1(2H)-yl)methyl]-4H-chromen-4-one], for which, in assay [1], the inhibition at 5 µM came out at 72%. In addition, in assay [2], the Emax was 75%. In assay [3], the “D4/D2 Selectivity” value was around 10.

Regarding `O=c1cc(CN2CC=C(c3ccccc3)CC2)nc2ccccn12` [Compound 301, 2-[(4-phenyl-3,6-dihydropyridin-1(2H)-yl)methyl]-4H-pyrido[1,2-a]pyrimidin-4-one], the inhibition at 5 µM in assay [1] worked out at 59%. Also, the Emax in assay [2] stood at 69%. For the same molecule, the “D4/D2 Selectivity” value in assay [3] is given as around 10.

As to `CCCOc1cccnc1N1CCN(Cc2nc3ccccc3c(=O)[nH]2)CC1` [Compound B-14, 2-((4-(3-propoxypyridin-2-yl)piperazin-1-yl)methyl)quinazolin-4(3H)-one], the inhibition at 5 µM in assay [1] was 81%. The same molecule came in with an inhibition at 50 µM in assay [4] (50 mcM compound, 1 μM cGMP) of 70%. In assay [4], the IC50 was 9 µM; the “exhibit both PDE5 inhibition and D4 agonist activity (dual activity)” value was “both PDE5 inhibition and D4 agonist activity”.

Consider `CCCn1cnc2nc(CN3CCN(c4cccc(O)c4)CC3)[nH]c(=O)c21` [Compound B-33, 2-((4-(3-hydroxyphenyl)piperazin-1-yl)methyl)-7-propyl-1H-purin-6(7H)-one], for which, in assay [1], the inhibition at 5 µM is 11%. Further, the inhibition at 50 µM in assay [4] (50 mcM compound, 1 μM cGMP) was 31%. Besides, the “PDE5 IC50, 10^−6 M” value in assay [4] is “active”.

Consider `O=c1[nH]c(CN2CCN(c3ncccn3)CC2)nc2cc(Cl)ccc12` [Compound B-72, 7-chloro-2-((4-(pyrimidin-2-yl)piperazin-1-yl)methyl)quinazolin-4(3H)-one], for which, in assay [1], the inhibition at 5 µM is 70%. For the same molecule, in assay [4] (50 mcM compound, 1 μM cGMP), the inhibition at 50 µM is 62%. Further, in assay [4], the IC50 came to 2 µM; the “exhibit both PDE5 inhibition and D4 agonist activity (dual activity)” value was “both PDE5 inhibition and D4 agonist activity”.

In the case of `O=c1[nH]c(CN2CCC=C(c3ccccn3)C2)nc2ccccc12` [Compound B-82, 2-((5,6-dihydro-3-(pyridin-2-yl)pyridin-1(2H)-yl)methyl)quinazolin-4(3H)-one], the inhibition at 5 µM in assay [1] amounted to 12%. Further, the “PDE5 % inhibition at 50 mcM” value in assay [4] (50 mcM compound, 1 μM cGMP) is given as “Problems with solubility”. Moreover, in assay [4], the “PDE5 IC50, 10^−6 M” value is “Problems with solubility”.
